Test results from US11518758B2, “Heteroarylaminopyrimidine amide autophagy inhibitors and methods of use thereof” (Deciphera Pharmaceuticals, LLC, priority 2019, dated 2022).

Assays:
ULK2 kinase = molecular target: T1, ULK2 kinase (Homo sapiens, UniProt Q8IYT8); experiment: Biochemical assay for ULK2 (coupled pyruvate kinase/lactate dehydrogenase assay); conditions: 9.7 nM ULK2 (Eurofins), myelin basic protein, 1 mM ATP; read-out: ULK2.2
T1 construct: purchased Eurofins 14-772
Procedure: Example 176. Biochemical Assay for ULK2
(§1) Activity of ULK2 kinase was determined spectroscopically using a coupled pyruvate kinase/lactate dehydrogenase assay that continuously monitors the ATP hydrolysis-dependent oxidation of NADH (e.g., Schindler et al. Science (2000) 289: 1938-1942). Assays were conducted in 384-well plates (100 uL final volume) using 9.7 nM ULK2 (Eurofins CAT #14-772), 0.25 mg/mL myelin basic protein, 1.5 units pyruvate kinase, 2.1 units lactate dehydrogenase, 1 mM phosphoenol pyruvate, 0.28 mM NADH and 1 mM ATP in assay buffer (100 mM Tris, pH 7.5, 15 mM MgCl2, 0.5 mM DTT, 0.1% octyl-glucoside, 0.002% (w/v) BSA, and 0.002% Triton X-100). Inhibition of ULK2 was measured by adding serial diluted test compound (final assay concentration of 1% DMSO). A decrease in absorption at 340 nm was monitored continuously for 6 hours at 30° C. on a multi-mode microplate reader (BioTek). The reaction rate was calculated using the 2-3 h time frame. The reaction rate at each concentration of compound was converted to percent inhibition using controls (i.e. reaction with no test compound and reaction with a known inhibitor) and IC50 values were calculated by fitting a four-parameter sigmoidal curve to the data using Prism (GraphPad software).

ULK1 kinase = molecular target: T2, ULK1 kinase (Homo sapiens, UniProt O75385); experiment: Biochemical assay for ULK1.2 (coupled pyruvate kinase/lactate dehydrogenase assay); conditions: 19 nM ULK1 (Eurofins), myelin basic protein, 1 mM ATP
T2 construct: purchased Eurofins 14-959
T2 sequence (O75385 with tags, fused parts or gaps): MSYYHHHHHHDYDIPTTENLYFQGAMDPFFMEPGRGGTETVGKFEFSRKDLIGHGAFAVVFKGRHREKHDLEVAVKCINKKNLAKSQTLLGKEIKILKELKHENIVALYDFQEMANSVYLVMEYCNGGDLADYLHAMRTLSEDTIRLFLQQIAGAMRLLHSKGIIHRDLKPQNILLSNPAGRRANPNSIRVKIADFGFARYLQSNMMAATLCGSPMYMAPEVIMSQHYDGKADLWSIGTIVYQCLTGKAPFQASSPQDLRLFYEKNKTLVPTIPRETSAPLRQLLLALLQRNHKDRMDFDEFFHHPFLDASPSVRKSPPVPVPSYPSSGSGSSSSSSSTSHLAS
Procedure: Example 174. Biochemical Assay for ULK1.2
as §1, with “ULK1” for “ULK2”, “19” for “9.7”, “#14-959),” for “#14-772),”

[1] = test system: phospho-Serine 318 ATG13 (pATG13), ULK kinase substrate, in A549 (KRAS mutant) cells; experiment: pATG13 levels of mutant KRas A549 cells after treatment with ULK inhibitors in combination with trametinib (ELISA); format: cell-based, human; conditions: with 250 nM trametinib
Procedure: Example 177. Cellular Inhibition of ULK Kinase Substrate ATG13 Protein pATG13 Levels of Mutant KRas A549 Cells after Treatment with ULK Inhibitors in Combination with Trametinib
A549 (KRAS mutant) human lung cancer cells (6,000 cells/well) were added to a 384-well tissue-culture treated plate in 50 μL of pre-warmed DMEM medium supplemented with 10% characterized fetal bovine serum (Invitrogen, Carlsbad, Calif.), 100 units/mL penicillin G, and 100 μg/mL streptomycin and allowed to grow overnight at 37° C., 5% CO2, and 95% humidity. The following day, 10 μL of media containing trametinib or DMSO as a control was added to wells. The final concentration of trametinib in wells was 250 nM. A dose response of a test compound (0.6 μL per well) was added. DMSO (0.6 μL) was added to control wells. The plate was briefly shaken to mix wells and then incubated at 37° C. overnight. The next day, the media was aspirated and cells were washed with Dulbecco's Phosphate Buffered Saline (Gibco). Cells were lysed using MPER lysis buffer (Pierce, Rockford, Ill.) containing Halt Phosphatase and Protease Inhibitors (Pierce, Rockford, Ill.) and Phosphatase inhibitor cocktail 2 (Sigma, St. Louis, Mo.) at 4° C. for 10 minutes with shaking.
Cellular levels of phospho-Serine 318 ATG13 (pATG13) were measured via an ELISA method. Total ATG13 Antibody (Cell Signaling Cat #13273) was used to coat the wells. The plate was incubated at 4° C. overnight and washed with ELISA wash buffer (Biolegend Cat #421601). The wells were then blocked with assay diluent (Biolegend Cat #421203) for 1 hour at room temperature. Plate wells were washed with ELISA wash buffer. Cell lysate was added to wells and incubated at room temperature for 2 hours. Plate wells were washed with ELISA wash buffer. Biotinylated pS318-ATG13 antibody (Rockland Immunochemicals Cat #600-401-C49) was diluted in assay diluent and added to each well and incubated at room temperature for 1 hour. Plate wells were washed with ELISA wash buffer. Streptavidin linked to horseradish peroxidase (Thermo Fisher Cat #21140) was diluted in assay diluent and added to each well and incubated at room temperature for 1 hour. Plate wells were washed with ELISA wash buffer. High sensitivity TMB substrate (Biolegend Cat #421101) was added to each well and incubated at room temperature for 20 minutes. The reaction was stopped with 2N Sulfuric Acid. The plate was analyzed at on a plate reader measuring absorbance at 450 nm and 540 nm (background). Signal was calculated by first subtracting the background absorbance at 540 nm from the absorbance at 450 nm for each well. Next, the background corrected absorbance at 450 nm from blank wells was subtracted from test wells. Data was compared to control wells to determine % ATG13 phosphorylation. GraphPad Prism was used to calculate IC50 values.

LRRK2 kinase = molecular target: T3, LRRK2 kinase (Homo sapiens, UniProt Q5S007); experiment: Biochemical assay for LRRK2 (coupled pyruvate kinase/lactate dehydrogenase assay); conditions: 26.4 nM LRRK2 (residues 970-2528), 0.1 mM peptide substrate, 1 mM ATP
T3 construct: purchased Thermo Fisher
Procedure: Example 182. Biochemical Assay for LRRK2 (SEQ. ID NO. 4)
Activity of LRRK2 kinase was determined spectroscopically using a coupled pyruvate kinase/lactate dehydrogenase assay that continuously monitors the ATP hydrolysis-dependent oxidation of NADH (e.g., Schindler et al. Science (2000) 289: 1938-1942). Assays were conducted in 384-well plates (100 uL final volume) using 26.4 nM LRRK2 (Thermo Fisher), 0.1 mM peptide substrate (RLGRDKYKTLRQIRQ (SEQ ID NO: 6)), 1.5 units pyruvate kinase, 2.1 units lactate dehydrogenase, 1 mM phosphoenol pyruvate, 0.28 mM NADH and 1 mM ATP in assay buffer (100 mM Tris, pH 7.5, 15 mM MgCl2, 0.5 mM DTT, 0.004% (w/v) BSA, and 0.004% Triton X-100). Inhibition of LRRK2 was measured by adding serial diluted test compound (final assay concentration of 1% DMSO). A decrease in absorption at 340 nm was monitored continuously for 6 hours at 30° C. on a multi-mode microplate reader (BioTek). The reaction rate was calculated using the 2-3 h time frame. The reaction rate at each concentration of compound was converted to percent inhibition using controls (i.e. reaction with no test compound and reaction with a known inhibitor) and IC50 values were calculated using software routines in Prism (GraphPad software).

T3 sequence (Q5S007 with tags, fused parts or gaps): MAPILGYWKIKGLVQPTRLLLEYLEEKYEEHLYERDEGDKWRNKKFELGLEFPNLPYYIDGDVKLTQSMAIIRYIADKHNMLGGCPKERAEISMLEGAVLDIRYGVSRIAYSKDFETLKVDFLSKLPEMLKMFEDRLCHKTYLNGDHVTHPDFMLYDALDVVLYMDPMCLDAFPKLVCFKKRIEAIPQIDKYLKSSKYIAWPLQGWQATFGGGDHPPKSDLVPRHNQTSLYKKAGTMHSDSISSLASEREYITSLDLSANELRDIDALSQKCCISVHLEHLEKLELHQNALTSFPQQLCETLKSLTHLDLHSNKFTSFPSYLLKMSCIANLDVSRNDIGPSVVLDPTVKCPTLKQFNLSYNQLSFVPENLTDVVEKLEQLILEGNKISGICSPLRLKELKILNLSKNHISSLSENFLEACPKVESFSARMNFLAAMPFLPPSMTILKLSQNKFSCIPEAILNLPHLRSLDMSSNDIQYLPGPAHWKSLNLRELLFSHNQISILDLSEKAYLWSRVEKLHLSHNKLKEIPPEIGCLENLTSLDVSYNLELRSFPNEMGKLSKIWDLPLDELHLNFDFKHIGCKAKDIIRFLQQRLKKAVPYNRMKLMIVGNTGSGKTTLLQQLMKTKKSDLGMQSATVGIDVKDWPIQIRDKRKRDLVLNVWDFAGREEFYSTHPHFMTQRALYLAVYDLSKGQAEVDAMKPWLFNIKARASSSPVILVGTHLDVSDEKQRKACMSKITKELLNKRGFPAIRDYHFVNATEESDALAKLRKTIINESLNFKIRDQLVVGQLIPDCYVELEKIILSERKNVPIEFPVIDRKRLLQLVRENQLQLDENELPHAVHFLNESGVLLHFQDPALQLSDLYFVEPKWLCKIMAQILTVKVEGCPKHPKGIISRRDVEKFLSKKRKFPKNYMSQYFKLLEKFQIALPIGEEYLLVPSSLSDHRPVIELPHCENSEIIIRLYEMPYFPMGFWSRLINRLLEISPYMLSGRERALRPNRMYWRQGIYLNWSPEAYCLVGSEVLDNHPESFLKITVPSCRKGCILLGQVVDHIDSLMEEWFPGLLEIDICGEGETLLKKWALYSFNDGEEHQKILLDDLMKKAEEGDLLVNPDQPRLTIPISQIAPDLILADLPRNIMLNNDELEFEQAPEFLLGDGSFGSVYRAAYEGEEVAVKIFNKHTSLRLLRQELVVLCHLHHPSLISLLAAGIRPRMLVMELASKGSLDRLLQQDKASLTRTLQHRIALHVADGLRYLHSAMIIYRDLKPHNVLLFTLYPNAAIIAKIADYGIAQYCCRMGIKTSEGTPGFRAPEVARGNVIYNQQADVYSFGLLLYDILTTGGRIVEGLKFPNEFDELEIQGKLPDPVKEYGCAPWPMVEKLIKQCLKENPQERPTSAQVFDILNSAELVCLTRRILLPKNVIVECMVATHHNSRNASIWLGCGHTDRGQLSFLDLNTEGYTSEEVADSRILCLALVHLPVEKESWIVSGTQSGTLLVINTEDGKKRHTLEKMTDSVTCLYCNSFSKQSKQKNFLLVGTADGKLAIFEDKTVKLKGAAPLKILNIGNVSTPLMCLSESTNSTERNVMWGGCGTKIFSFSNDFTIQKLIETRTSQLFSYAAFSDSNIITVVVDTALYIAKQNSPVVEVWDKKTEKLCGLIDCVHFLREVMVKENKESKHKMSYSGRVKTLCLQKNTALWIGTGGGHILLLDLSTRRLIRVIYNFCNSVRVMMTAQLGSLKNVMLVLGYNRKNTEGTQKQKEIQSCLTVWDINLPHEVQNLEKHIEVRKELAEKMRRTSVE
T1 sequence (Q8IYT8 with tags, fused parts or gaps): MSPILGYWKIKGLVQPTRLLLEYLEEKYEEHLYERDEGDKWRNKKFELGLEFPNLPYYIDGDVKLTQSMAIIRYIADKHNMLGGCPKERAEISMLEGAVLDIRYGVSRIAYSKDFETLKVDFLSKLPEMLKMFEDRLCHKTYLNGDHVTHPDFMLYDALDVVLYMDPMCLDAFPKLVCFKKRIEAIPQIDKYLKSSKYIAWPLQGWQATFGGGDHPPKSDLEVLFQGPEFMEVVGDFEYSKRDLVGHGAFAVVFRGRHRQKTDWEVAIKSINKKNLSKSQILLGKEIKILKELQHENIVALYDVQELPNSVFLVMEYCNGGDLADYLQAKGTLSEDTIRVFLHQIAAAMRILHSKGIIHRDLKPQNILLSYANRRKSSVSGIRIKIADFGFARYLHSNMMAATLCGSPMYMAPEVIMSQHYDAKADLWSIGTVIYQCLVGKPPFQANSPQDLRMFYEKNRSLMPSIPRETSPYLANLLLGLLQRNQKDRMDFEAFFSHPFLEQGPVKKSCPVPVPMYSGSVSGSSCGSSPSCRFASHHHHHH

| IC50 (ULK2 kinase) | IC50 (ULK1 kinase) | IC50 [1] | IC50 (LRRK2 kinase) | SMILES |
| --- | --- | --- | --- | --- |
| 100 to 500 nM | 1 to 25 nM | 300 to 600 nM | – | Cc1nn(C2CCN(C3COC3)CC2)cc1Nc1ncc(C(F)(F)F)c(NCCCN2CCCCCC2=O)n1 [Example 91] |
| 1 to 25 nM | 1 to 25 nM | 10 to 100 nM | – | CN1CCC(n2cc(Nc3ncc(Cl)c(NCCCN4CCCCCC4=O)n3)cn2)CC1 [Example 81] |
| 25 to 100 nM | 25 to 100 nM | > 600 nM | – | Cc1nn(C2CCNCC2)cc1Nc1ncc(C(F)(F)F)c(NCCCN2CCCC2=O)n1 [Example 103] |
| 100 to 500 nM | 25 to 100 nM | – | – | CCc1nn(C2CCNCC2)cc1Nc1ncc(Br)c(NCCCN2CCCCC2=O)n1 [Example 41] |
| 25 to 100 nM | 1 to 25 nM | 10 to 100 nM | – | CCN1CC[C@@H](n2cc(Nc3ncc(C(F)(F)F)c(NCCCN4CCCCC4=O)n3)c(C)n2)C1 [Example 25] |
| 100 to 500 nM | 1 to 25 nM | 10 to 100 nM | 100 to 300 nM | Cc1nn(C2CCN(C)CC2)cc1Nc1ncc(Cl)c(NCCCN2CCCCCC2=O)n1 [Example 80, 1-(3-((5-chloro-2-((3-methyl-1-(1-methylpiperidin-4-yl)-1H-pyrazol-4-yl)amino)pyrimidin-4-yl)amino)propyl)azepan-2-one] |
| 25 to 100 nM | 1 to 25 nM | – | – | CN1CCC(n2cc(Nc3ncc(Cl)c(NCCCN4CCCCC4=O)n3)cn2)CC1 [Example 2] |
| 1 to 25 nM | 1 to 25 nM | 100 to 300 nM | – | O=C1CCCCCN1CCCNc1nc(Nc2cnn(C3CCNCC3)c2)ncc1C(F)(F)F [Example 77] |
| 25 to 100 nM | 1 to 25 nM | 100 to 300 nM | – | CN1CCC(n2cc(Nc3ncc(C(F)(F)F)c(NCCCN4CCCC4=O)n3)cn2)CC1 [Example 166] |
| 25 to 100 nM | 25 to 100 nM | > 600 nM | 300 to 600 nM | Cc1nn(C2CCN(C)CC2)cc1Nc1ncc(C(F)(F)F)c(NCCCN2CCCC2=O)n1 [Example 104] |
| > 500 nM | 25 to 100 nM | – | > 600 nM | CN1CCC(n2cc(Nc3ncc(C4CC4)c(NCCCN4CCCCC4=O)n3)cn2)CC1 [Example 1] |
| 25 to 100 nM | 1 to 25 nM | > 600 nM | – | Cc1nn(C2CCN(C)CC2)cc1Nc1ncc(Br)c(NCCCN2CCCCC2=O)n1 [Example 51] |
| 1 to 25 nM | 1 to 25 nM | 10 to 100 nM | – | CN1CCC(n2cc(Nc3ncc(C(F)(F)F)c(NCCCN4CCCCCC4=O)n3)cn2)CC1 [Example 78] |
| > 500 nM | 100 to 500 nM | – | > 600 nM | CN1CCC(n2cc(Nc3ncc(C4CC4)c(NCCCN4CCN(C)C4=O)n3)cn2)CC1 [Example 147] |
| 25 to 100 nM | 1 to 25 nM | > 600 nM | – | O=C1CCCCN1CCCNc1nc(Nc2cnn(C3CCNCC3)c2)ncc1Cl [Example 4] |
| 100 to 500 nM | 25 to 100 nM | > 600 nM | – | Cc1nn(C2CCNCC2)cc1Nc1ncc(Cl)c(NCCCN2CCCCCC2=O)n1 [Example 86] |
| 25 to 100 nM | 1 to 25 nM | > 600 nM | 300 to 600 nM | Cc1nn(C2CCNCC2)cc1Nc1ncc(Br)c(NCCCN2CCCCC2=O)n1 [Example 26] |
| 1 to 25 nM | 1 to 25 nM | 100 to 300 nM | – | Cc1nn(C2CCNCC2)cc1Nc1ncc(C(F)(F)F)c(NCCCN2CCCCCC2=O)n1 [Example 83, 1-(3-((2-((3-methyl-1-(piperidin-4-yl)-1H-pyrazol-4-yl)amino)-5-(trifluoromethyl)pyrimidin-4-yl)amino)propyl)azepan-2-one] |
| 100 to 500 nM | 25 to 100 nM | > 600 nM | – | Cc1nn(C2CCNCC2)cc1Nc1ncc(Cl)c(NCCCN2CCCCC2=O)n1 [Example 27] |
| – | 100 to 500 nM | – | > 600 nM | CN1CCC(n2cc(Nc3ncc(C4CC4)c(NCCCN4CCCC4=O)n3)cn2)CC1 [Example 84] |
